# Reference: patent publication US10316050B2, “PT (IV) complexes containing 4,4′-disubstituted-2,2′-bipyridyl and their use in cancer therapy” (THE BOARD OF REGENTS OF THE NEVADA SYSTEM OF HIGHER …, priority 2014, dated 2019)
# Key:
# [1] = test system: DU145 cells; assay: Cell cycle analysis, propidium iodide flow cytometry, DU145; assay type: cell-based, human; details: DU145, 10 μM Pt(IV)-4C or 2.5 μM Pt(IV)-5C for 1 hour, analyzed 12 hours post treatment
# Description: FIG. 10 is a series of plots from a cell cycle analysis of A549 cells (top) and DU145 cells (bottom) cells treated with Pt(IV)-4C and Pt(IV)-5C. A549 cells were treated for 5 hours with control (left), 25 μM Pt(IV)-4C (center), or 7.5 μM Pt(IV)-5C (right), and analyzed 12 hours post treatment. DU145 cells were treated for 1 hour with control (left), 10 μM Pt(IV)-4C (center), or 2.5 μM Pt(IV)-5C (right), and analyzed 12 hours post treatment. Data are representative of three independent experiments.
# Cells (˜50 to 60% confluent in 60 mm dishes) were treated as indicated with the platinum compound. After treatment, the floating cells were collected, and both attached and floating cells were washed 2× with PBS. The cells were resuspended in fresh medium and incubated as indicated. The cells were harvested (both the floating and attached cells were collected), counted, and pelleted. The cells were then washed two times with 5 mL PBS, fixed by resuspending in 0.1 mL of PBS and 1 mL of ice-cold 95% ethanol with gentle vortexing. Fixed cells were stored at 4° C. until analysis. For analysis, fixed cells were washed once with 1-2 mL of PBS and centrifuged at 500×g for 5 minutes. The cell pellet was resuspended in 100 μL of a 1.0% Triton X-100 buffer solution, and 100 μL of a 1.0 mg/mL RNAse solution was added and allowed to stand at room temperature for 10-15 minutes. […]
# [2] = test system: phosphorylated H2AX (γH2AX) in DU145 cells; assay: Flow cytometry of phosphorylated H2AX, DU145; assay type: cell-based, human; details: DU145, 10 μM Pt(IV)-4C or 2.5 μM Pt(IV)-5C for 2 hours, analyzed 7 hours post treatment
# Description: FIG. 9 is a series of graphs plotting Pt(IV) complex-induced phosphorylation of H2AX in A549 cells (top panels) and DU145 cells (bottom panels). A549 cells were treated with control (left), 25 μM Pt(IV)-4C (center), or 7.5 μM Pt(IV)-5C (right) for 6 hours, and analyzed 12 hours post treatment. DU145 cells were treated for 2 hours with control (left), 10 μM Pt(IV)-4C (center), or 2.5 μM Pt(IV)-5C (right), and analyzed 7 hours post treatment. Data are representative of three independent experiments.
# Cells (200,000 to 250,000) were seeded in 60 mm dishes and incubated at 37° C. in a humidified, 5% CO2 atmosphere for 2 days to reach ˜50-60% confluence. The cells were treated with the platinum complexes as indicated, the floating cells were collected, and both attached and floating cells were washed 2× with PBS. The cells were resuspended in fresh medium and incubated as indicated. After incubation, both the floating and attached cells were collected and fixed by incubation in 4% formaldehyde for 10 minutes at room temperature. The fixed cells were pelleted and permeabilized by incubation in 500 μL of ice-cold methanol at 4° C. for 10 minutes. The samples were stored at −20° C. until analysis. For analysis, the cells were pelleted and washed 2× with 1% BSA in PBS. […] After washing 2× with 1% BSA, the cells were resuspended in PBS and analyzed on a Becton Dickinson FACS Calibur. […]
compound,measurement,setting,value
"[Pt(IV)Cl2(OAc)2(4,4′-dibutoxy-2,2′-bipyridine)] [Pt(IV)-4C]",effect on the cell cycle / sub-G1 peak,[1],did not affect the cell cycle
same,level of phosphorylated H2AX (γH2AX),[2],increase of γH2AX
"CC(=O)[O][Pt]([Cl])([Cl])[O]C(C)=O.CCCCCOc1ccnc(-c2cc(OCCCCC)ccn2)c1 [Pt(IV)-5C, [Pt(IV)Cl2(OAc)2(4,4′-dipentoxy-2,2′-bipyridine)]]",effect on the cell cycle / sub-G1 peak,[1],did not affect the cell cycle
same,level of phosphorylated H2AX (γH2AX),[2],increase of γH2AX
